{"source": "patent US20260297542A1", "about": "“HERBICIDE RESISTANT PLANTS” (SYNGENTA CROP PROTECTION AG, priority 2023, published 2026)", "test_in_all_cases": "E. coli hemG growth inhibition by herbicide, AtPPO1 variant", "type_in_all_cases": "cell-based", "settings_in_all_cases": "read-out: percentage growth inhibition", "key": {"AtPPO1 T431R": {"target": "T1, AtPPO1 T431R (Arabidopsis thaliana, UniProt P55826, T431R)", "T1 construct": "expressed in transfected cells; host or cells: E. coli BL21(DE3) hemG (pET24a, T7 promoter)", "T1 sequence (P55826 35-537 T431R)": "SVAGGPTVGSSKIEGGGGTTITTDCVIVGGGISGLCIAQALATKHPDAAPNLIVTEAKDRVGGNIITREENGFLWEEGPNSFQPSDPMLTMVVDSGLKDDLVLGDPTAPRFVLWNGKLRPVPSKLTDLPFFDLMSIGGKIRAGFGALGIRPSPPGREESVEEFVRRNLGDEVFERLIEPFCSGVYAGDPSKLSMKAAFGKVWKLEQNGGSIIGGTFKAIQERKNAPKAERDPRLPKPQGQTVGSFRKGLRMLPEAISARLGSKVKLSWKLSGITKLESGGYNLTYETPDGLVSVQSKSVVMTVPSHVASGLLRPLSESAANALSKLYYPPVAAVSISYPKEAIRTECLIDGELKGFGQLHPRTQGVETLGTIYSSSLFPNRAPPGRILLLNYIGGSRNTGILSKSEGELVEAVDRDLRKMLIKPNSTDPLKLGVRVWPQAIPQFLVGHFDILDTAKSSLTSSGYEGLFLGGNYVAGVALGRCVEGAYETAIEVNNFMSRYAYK", "in_short": "(§1)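 E. coli BL21(DE3) ΔhemG::CmR complemented by AtPPO1 variants (pET24a, T7, E. coli codon-optimised); TB + 0.1 mM IPTG, 1:100 inoculum; 6.25 ppm herbicide 0/E or 0.78 ppm herbicide B vs DMSO; 24 h, 37° C, 250 rpm; OD600 at 24 h → % growth inhibition.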"}, "AtPPO1 G481D": {"target": "T2, AtPPO1 G481D (Arabidopsis thaliana, UniProt P55826, G481D)", "T2 construct": "expressed in transfected cells; host or cells: E. coli BL21(DE3) hemG, pET24a plasmid", "T2 sequence (P55826 35-537 G481D)": "T1 sequence (P55826 35-537 T431R) with R397T, G447D", "in_short": "as §1"}, "AtPPO1 V365L": {"target": "T3, AtPPO1 V365L (Arabidopsis thaliana, UniProt P55826, V365L)", "T3 construct": "expressed in transfected cells; host or cells: E. coli BL21(DE3) hemG (pET24a, T7 promoter)", "T3 sequence (P55826 35-537 V365L)": "T1 sequence (P55826 35-537 T431R) with V331L, R397T", "in_short": "as §1"}, "AtPPO1 K270M": {"target": "T4, AtPPO1 K270M (Arabidopsis thaliana, UniProt P55826, K270M)", "T4 construct": "expressed in transfected cells; host or cells: E. coli BL21(DE3) hemG, pET24a plasmid", "T4 sequence (P55826 35-537 K270M)": "T1 sequence (P55826 35-537 T431R) with K236M, R397T", "in_short": "as §1"}}, "note": "Where a chain is given by its changes, count along the chain named.", "data": [{"smiles": "CC(C)N(C)S(=O)(=O)NC(=O)c1cc(-n2c(=O)cc(C(F)(F)F)n(C)c2=O)c(F)cc1Cl", "note": "[Herbicide E, saflufenacil]", "values": [{"measurement": "inhibition at 6.25 ppm", "setting": "AtPPO1 T431R", "result": 56, "unit": "%"}, {"measurement": "inhibition at 6.25 ppm", "setting": "AtPPO1 G481D", "result": 16, "unit": "%"}, {"measurement": "inhibition at 6.25 ppm", "setting": "AtPPO1 V365L", "result": 27, "unit": "%"}, {"measurement": "inhibition at 6.25 ppm", "setting": "AtPPO1 K270M", "result": 29, "unit": "%"}]}, {"smiles": "C#CCN1C(=O)C(F)(F)Oc2cc(F)c(-n3c(=O)n(C)c(=S)n(C)c3=O)cc21", "note": "[Herbicide B, trifludimoxazin]", "values": [{"measurement": "inhibition at 0.78 ppm", "setting": "AtPPO1 T431R", "result": 25, "unit": "%"}, {"measurement": "inhibition at 0.78 ppm", "setting": "AtPPO1 G481D", "result": 40, "unit": "%"}, {"measurement": "inhibition at 0.78 ppm", "setting": "AtPPO1 V365L", "result": 11, "unit": "%"}, {"measurement": "inhibition at 0.78 ppm", "setting": "AtPPO1 K270M", "result": 28, "unit": "%"}]}, {"smiles": "CCOC(=O)[C@]1(C)CC(c2cc(-n3c(=O)n(C)c(=S)n(C)c3=O)c(F)cc2Cl)=NO1", "note": "[Herbicide D, ethyl (5S)-3-[2-chloro-5-(3,5-dimethyl-2,6-dioxo-4-thioxo-1,3,5-triazinan-1-yl)-4-fluoro-phenyl]-5-methyl-4H-isoxazole-5-carboxylate]", "values": [{"measurement": "inhibition at 6.25 ppm", "setting": "AtPPO1 T431R", "result": 28, "unit": "%"}, {"measurement": "inhibition at 6.25 ppm", "setting": "AtPPO1 G481D", "result": 20, "unit": "%"}, {"measurement": "inhibition at 6.25 ppm", "setting": "AtPPO1 V365L", "result": 55, "unit": "%"}, {"measurement": "inhibition at 6.25 ppm", "setting": "AtPPO1 K270M", "result": 23, "unit": "%"}]}]}
